Source: patent US20230272012A1, “PEPTIDES AND METHODS OF USE” (REALTA LIFE SCIENCES, INC., priority 2020, published 2023)
“Also recorded” adds a separate entry of the source. Bridge positions count the residues as written; N and C are the ends. Square brackets hold non-standard residues; d marks the D form. Ends that are not written are not given here. Peptide text beside a SMILES is read from it. R8 = C=CCCCCCC[C@@](C)(N)C(=O)O; S5 = C=CCCC[C@](C)(N)C(=O)O; Sar = CNCC(=O)O

Experiments:
C1q = target: T1, C1q (Homo sapiens, UniProt P02745+P02746+P02747); assay: C1q binding ELISA-type assay; conditions: for binding to C1q: plate-bound C1q, antibody detection
T1 construct: purchased Complement Technology (Tyler, Tex.)
Procedure: The C1q binding assay was performed as previously described. Briefly, an Immunlon-2 HB ELISA plate was coated with 1 μg/ml C1q in bicarbonate buffer overnight at 4° C. The plates were washed with PBS-T (phosphate buffered saline+0.1% Tween) and then blocked with 1% gelatin/PBS for 2 hours at room temperature. After washing, the plates were incubated with the peptides starting at 2.5 mg/ml and then serially diluted in 1% gelatin/PBS for 1 hour at room temperature followed by washing. Plates were then probed with rabbit antibody raised against the lead peptide […] (SEQ ID NO: 2) that lacked PEGylation at 1:1000 in 1% gelatin/PBS for 1 hour at room temperature followed by a goat anti-rabbit HRP (Sigma Aldrich, St Louis, Mo.) at 1:1,000 in 1% gelatin/PBS for 1 hour at room temperature with a washing step in between. After addition of TMB substrate solution to the wells, the reaction was stopped using 1N H2SO4, and the plate read on a BioTek Synergy HT plate reader at 450 nm.
The astrovirus capsid protein and the PIC1 molecules derived from it inhibit classical complement pathway activation by binding to the pattern recognition molecule C1q. The inventors next tested peptide variant binding to C1q in an ELISA-type assay in which C1q is used as the capture substrate and bound peptide detected with a rabbit polyclonal antibody against the peptide portion of PA-dPEG24 ([…]-d24; SEQ ID NO: 3). Binding curves were derived for the stapled and D-amino acid peptides based on the PA-I8Sar and PA-C9Sar (FIG. 6A-6D) backbone, from which half-maximal binding concentrations were calculated (FIGS. 2A and B, respectively). […] For the D-amino acid variants, all peptides in which C1q binding was detected, had variable but increased binding to C1q compared to PA-I8Sar (FIG. 2A). For the peptides based on the PA-C9Sar backbone, with the exception of PA-0148, C1q was bound to the same degree or greater than the parent peptide (FIG. 2B).
(§1) The inventors also assessed the ability of RLS-0127* and RLS-0133* to inhibit MPO activity as determined by inhibition of oxidation of TMB in a plate-based assay. […] Additionally, the inventors assessed the ability of RLS-0127* and RLS-0133* to bind C1q in a plate-based assay in which C1q is coated on the plate and increasing amounts of the peptides are added, followed by primary antibody to the peptides and secondary antibody conjugated to HRP. The plate was then incubated with TMB to give a […] signal that is detected at a wavelength of 450 nm in a plate reader.

PD-1/PD-L1 interaction = target: T2, PD-1/PD-L1 interaction (Homo sapiens, UniProt Q15116+Q9NZQ7); assay: PD-1/PD-L1 Blockade Bioassay (Promega); format: cell-based; conditions: increasing peptide concentrations
T2 construct: host or cells: PD-1 effector cells; PD-L1 aAPC/CHO-K1 cells
In short: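 PD-1 effector cells co-cultured with PD-L1 aAPC/CHO-K1 cells, with or without increasing concentrations of peptides; anti-PD-1 antibody as positive control. Blockade of PD-1/PD-L1 restores TCR signalling, read as NFAT-driven luciferase luminescence.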

MPO = target: T3, MPO (Homo sapiens, UniProt P05164); assay: MPO activity assay (TMB oxidation); format: biochemical; conditions: for inhibition of MPO peroxidase activity (TMB oxidation), dose response: purified human MPO, increasing amounts of peptide
T3 construct: purchased Lee BioSolutions (Maryland Heights, Mo.)
T3 sequence (P05164 49-745): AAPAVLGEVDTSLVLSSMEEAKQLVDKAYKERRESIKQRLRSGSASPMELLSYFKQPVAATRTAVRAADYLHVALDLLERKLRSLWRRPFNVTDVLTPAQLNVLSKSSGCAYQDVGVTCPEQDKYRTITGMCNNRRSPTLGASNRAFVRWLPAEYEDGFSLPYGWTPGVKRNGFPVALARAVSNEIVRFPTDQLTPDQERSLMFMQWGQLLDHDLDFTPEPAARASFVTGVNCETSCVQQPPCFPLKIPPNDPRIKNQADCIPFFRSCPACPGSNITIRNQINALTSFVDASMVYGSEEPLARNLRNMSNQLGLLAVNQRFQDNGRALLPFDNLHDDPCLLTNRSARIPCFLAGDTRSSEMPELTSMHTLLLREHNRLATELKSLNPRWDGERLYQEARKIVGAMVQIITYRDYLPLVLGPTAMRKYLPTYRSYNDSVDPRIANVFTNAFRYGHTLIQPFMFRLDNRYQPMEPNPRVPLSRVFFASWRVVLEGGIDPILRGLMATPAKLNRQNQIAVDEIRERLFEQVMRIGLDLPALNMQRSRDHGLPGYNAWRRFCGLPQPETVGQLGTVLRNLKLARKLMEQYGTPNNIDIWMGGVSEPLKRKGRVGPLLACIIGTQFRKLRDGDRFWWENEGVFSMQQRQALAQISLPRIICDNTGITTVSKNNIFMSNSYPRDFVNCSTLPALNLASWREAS
Procedure: The MPO activity assay was performed as previously described. Briefly, peptides were diluted to 12 mg/ml and serially titrated in a 96 well plate at a volume of 0.02 ml. MPO was diluted to 20 μg/ml and 0.02 ml was added to the titrated peptides. TMB (3,30,5,50-tetramethylbenzidine) (0.1 ml) was added to each well for 2 minutes, followed by 0.1 ml of 2.5 N H2SO4 for another 2 minutes, and then read on a 96 well plate reader (BioTek) at 450 nm.
as §1

T1 sequence (P02745 23-245): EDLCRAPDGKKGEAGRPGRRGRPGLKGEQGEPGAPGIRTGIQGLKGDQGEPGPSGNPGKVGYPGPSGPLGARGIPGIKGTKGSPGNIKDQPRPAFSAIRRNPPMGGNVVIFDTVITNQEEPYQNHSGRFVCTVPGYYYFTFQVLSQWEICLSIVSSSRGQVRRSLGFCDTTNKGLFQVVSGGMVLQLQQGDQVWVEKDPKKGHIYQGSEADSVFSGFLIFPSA
T1 sequence (P02746 28-253): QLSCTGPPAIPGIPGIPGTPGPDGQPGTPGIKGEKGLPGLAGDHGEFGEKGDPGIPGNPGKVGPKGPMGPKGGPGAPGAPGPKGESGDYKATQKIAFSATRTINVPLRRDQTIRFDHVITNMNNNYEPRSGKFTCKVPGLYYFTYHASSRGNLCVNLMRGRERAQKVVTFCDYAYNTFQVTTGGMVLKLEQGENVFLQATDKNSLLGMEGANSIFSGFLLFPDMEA
T1 sequence (P02747 29-245): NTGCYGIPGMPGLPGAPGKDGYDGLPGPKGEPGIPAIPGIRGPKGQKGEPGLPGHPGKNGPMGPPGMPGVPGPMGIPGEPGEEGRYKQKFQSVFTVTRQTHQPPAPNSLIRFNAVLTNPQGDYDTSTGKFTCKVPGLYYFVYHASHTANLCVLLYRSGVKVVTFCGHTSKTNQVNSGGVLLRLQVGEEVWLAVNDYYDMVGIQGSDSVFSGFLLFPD
T2 sequence (Q15116 25-288): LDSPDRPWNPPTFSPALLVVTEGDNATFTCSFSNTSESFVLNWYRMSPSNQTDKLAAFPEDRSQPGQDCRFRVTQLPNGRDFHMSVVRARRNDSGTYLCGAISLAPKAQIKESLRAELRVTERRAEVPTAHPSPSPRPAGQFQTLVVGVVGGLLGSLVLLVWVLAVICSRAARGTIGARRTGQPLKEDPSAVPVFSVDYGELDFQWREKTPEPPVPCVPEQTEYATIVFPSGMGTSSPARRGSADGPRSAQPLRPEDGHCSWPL
T2 sequence (Q9NZQ7 19-290): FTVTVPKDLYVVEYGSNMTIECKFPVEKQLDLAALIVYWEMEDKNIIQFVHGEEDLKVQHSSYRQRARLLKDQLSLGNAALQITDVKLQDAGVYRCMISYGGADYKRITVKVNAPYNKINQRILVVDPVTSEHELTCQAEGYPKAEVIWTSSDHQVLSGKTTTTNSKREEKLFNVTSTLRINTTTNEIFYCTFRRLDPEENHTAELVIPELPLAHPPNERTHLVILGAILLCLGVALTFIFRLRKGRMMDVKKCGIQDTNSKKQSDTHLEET

| Compound | binding to C1q (C1q) | inhibition of PD-1/PD-L1 inhibitory signaling (luminescence) (PD-1/PD-L1 interaction; listed as RLS-0117) | inhibition of MPO peroxidase activity (TMB oxidation), dose response (MPO) | inhibition of PD-1/PD-L1 inhibitory signaling (luminescence) (PD-1/PD-L1 interaction) | binding to C1q compared with PA-I8Sar (C1q; half-maximal binding from binding curves) | MPO inhibition compared with PA-I8Sar (MPO; half-maximal values from dose-response curves) |
| --- | --- | --- | --- | --- | --- | --- |
| CC[C@H](C)[C@H](N)C(=O)N[C@@H](C)C(=O)N[C@@H](CC(C)C)C(=O)N[C@H](C(=O)N[C@@H](CC(C)C)C(=O)N[C@@H](CCC(=O)O)C(=O)N1CCC[C@H]1C(=O)N(C)CC(=O)N[C@@H](CS)C(=O)N[C@@]1(C)CCCC=CCCC[C@@](C)(C(=O)N[C@@H](C)C(=O)O)NC(=O)[C@H](CCCNC(=N)N)NC(=O)[C@H](CCC(=O)O)NC(=O)[C@H](CCC(N)=O)NC1=O)[C@@H](C)CC [PA-0117, IALILEP(Sar)CS5QERS5A] (H-IALILEP[Sar]C[S5]QER[S5]A-OH; staple 10-14) | dose-dependent binding | increase in luminescence indicative of inhibition of PD-1/PD-L1 inhibitory signaling; also recorded: able to inhibit PD-1/PD-L1 mediated cell signaling |  |  |  |  |
| IALILEP(Sar)dCCQERRA (IALILEP[Sar][dC]CQERRA; cysteine pairing not given here) [RLS-0127*] | bound C1q in a dose-dependent manner; also recorded: binds C1q |  | dose-dependently inhibited TMB oxidation; also recorded: inhibit complement activation and MPO peroxidase activity | increase in luminescence indicative of inhibition of PD-1/PD-L1 inhibitory signaling; also recorded: able to inhibit PD-1/PD-L1 mediated cell signaling |  |  |
| CC[C@H](C)[C@H](N)C(=O)N[C@]1(C)CCCCCCC=CCCC[C@@](C)(C(=O)N[C@@H](CS)C(=O)N[C@@H](CCC(N)=O)C(=O)N[C@@H](CCC(=O)O)C(=O)N[C@@H](CCCNC(=N)N)C(=O)N[C@@H](C)C(=O)N[C@@H](C)C(=O)O)NC(=O)CN(C)C(=O)[C@@H]2CCCN2C(=O)[C@H](CCC(=O)O)NC(=O)[C@H](CC(C)C)NC(=O)[C@H]([C@@H](C)CC)NC(=O)[C@H](CC(C)C)NC1=O [PA-0115, IR8LILEP(Sar)S5CQERAA] (H-I[R8]LILEP[Sar][S5]CQERAA-OH; staple 2-9) |  |  |  | did not show PD-1/PD-L1 inhibitory activity | markedly increased binding to C1q; also recorded: enhanced activity | enhanced activity |
| IALILEP(Sar)CCQERA (IALILEP[Sar]CCQERA; cysteine pairing not given here) [RLS-0133*] |  |  | dose-dependently inhibited TMB oxidation; also recorded: inhibit complement activation and MPO peroxidase activity | increase in luminescence indicative of inhibition of PD-1/PD-L1 inhibitory signaling; also recorded: able to inhibit PD-1/PD-L1 mediated cell signaling |  |  |
